Source: patent publication US8703483B2, “Reagents and methods for using human embryonic stem cells to evaluate toxicity of pharmaceutical compounds and other chemicals” (Wisconsin Alumni Research Foundation, priority 2006, dated 2014)

Test system: human embryonic stem cells
Experiment: Metabolite profiling (LC/ESI-TOF mass spectrometry) of extracellular media of hESCs treated with alcohol
Assay type: cell-based
From the text: Binned masses were annotated in silico by querying the neutral masses in several different databases. These databases included Metlin, Biological Magnetic Resonance Data Bank (BMRB), NIST Chemistry WebBook, and the Human Metabolome Database. A mass was considered identified when its neutral mass was within 10 ppm of a known compound annotated in one of the databases listed above.

SMILES: CCO [ETOH]
- Fold: Unknown, mass 646.7084, RT 5.903429 (ETOH 0.1, 4 D): −1.271 fold
- Fold: Unknown, mass 661.3846, RT 26.7452 (ETOH 0.1, 4 D): 1.295 fold
- Fold: Unknown, mass 693.4124, RT 31.11764 (ETOH 0.1, 4 D): 2.318 fold
- Fold: Unknown, mass 699.9225, RT 33.70266 (ETOH 0.1, 4 D): 1.719 fold
- Fold: Unknown, mass 707.3928, RT 34.62439 (ETOH 0.1, 4 D): 2.137 fold
- Fold: Unknown, mass 708.9387, RT 33.73428 (ETOH 0.1, 4 D): 2.16 fold
- Fold: Unknown, mass 730.4494, RT 33.89008 (ETOH 0.1, 4 D): 2.614 fold
- Fold: Unknown, mass 731.0954, RT 47.76987 (ETOH 0.1, 4 D): −2.776 fold
- Fold: Unknown, mass 732.007, RT 5.918027 (ETOH 0.1, 4 D): 1.795 fold
- Fold: Unknown, mass 751.4193, RT 35.028 (ETOH 0.1, 4 D): 1.87 fold
- Fold: Unknown, mass 752.4629, RT 34.12668 (ETOH 0.1, 4 D): 2.067 fold
- Fold: Unknown, mass 774.4767, RT 34.33545 (ETOH 0.1, 4 D): 2.104 fold
- Fold: Unknown, mass 774.5055, RT 89.29926 (ETOH 0.1, 4 D): −2.401 fold
- Fold: Unknown, mass 780.241, RT 5.886782 (ETOH 0.1, 4 D): −1.314 fold
- Fold: Unknown, mass 796.4891, RT 34.52749 (ETOH 0.1, 4 D): 1.927 fold
- Fold: Unknown, mass 796.9917, RT 34.60124 (ETOH 0.1, 4 D): 1.818 fold
- Fold: Unknown, mass 820.8181, RT 4.613879 (ETOH 0.1, 4 D): −1.47 fold
- Fold: Unknown, mass 888.8041, RT 5.259716 (ETOH 0.1, 4 D): −1.458 fold
- Fold: Unknown, mass 921.0025, RT 5.399211 (ETOH 0.1, 4 D): 1.678 fold
- Fold: Unknown, mass 1008.072, RT 3.705141 (ETOH 0.1, 4 D): 1.304 fold
- Fold: Unknown, mass 1038.786, RT 5.177162 (ETOH 0.1, 4 D): 1.678 fold
- Fold: glucuronide, mass 471.1928, RT 30.37291 (ETOH 0.1, 4 D): 2.001 fold
- Fold: 3,4-Dihydroxybutyric acid, mass 129.0452, RT 16.73904 (ETOH 0.1, 24 H): 1.502 fold
- Fold: 3-Methylindole, mass 131.0746, RT 22.22892 (ETOH 0.1, 24 H): −1.857 fold
- Fold: (+/−)-2-(4′-Isobutylphenyl)propionitrile, mass 187.1343, RT 22.17997 (ETOH 0.1, 24 H): 1.488 fold
- Fold: GABA analogue, mass 171.1244, RT 26.70635 (ETOH 0.1, 24 H): 2.376 fold
- Fold: Malonylcarnitine, mass 229.0949, RT 24.52067 (ETOH 0.1, 24 H): −2.33 fold
- Fold: Oxidized glutathione (Glutathione disulfide; GSSG; Oxiglutatione), mass 612.1509, RT 8.056862 (ETOH 0.1, 24 H): −1.474 fold
- Fold: Unknown, mass 130.9541, RT 88.64043 (ETOH 0.1, 24 H): 1.632 fold
- Fold: Unknown, mass 148.0052, RT 3.958833 (ETOH 0.1, 24 H): −1.948 fold
- Fold: Unknown, mass 266.1613, RT 64.66999 (ETOH 0.1, 24 H): −1.519 fold
- Fold: Unknown, mass 271.9364, RT 4.86619 (ETOH 0.1, 24 H): 2.629 fold
- Fold: Unknown, mass 272.16, RT 43.99398 (ETOH 0.1, 24 H): 1.93 fold
- Fold: Unknown, mass 285.2285, RT 63.00428 (ETOH 0.1, 24 H): 4.003 fold
- Fold: Unknown, mass 294.0957, RT 6.160071 (ETOH 0.1, 24 H): 1.269 fold
- Fold: Unknown, mass 296.2308, RT 71.55535 (ETOH 0.1, 24 H): 3.545 fold
- Fold: Unknown, mass 300.1656, RT 17.18696 (ETOH 0.1, 24 H): 1.549 fold
- Fold: Unknown, mass 337.2012, RT 8.542672 (ETOH 0.1, 24 H): 1.402 fold
- Fold: Unknown, mass 362.2787, RT 83.72506 (ETOH 0.1, 24 H): 2.82 fold
- Fold: Unknown, mass 379.1771, RT 20.76168 (ETOH 0.1, 24 H): −1.723 fold
- Fold: Unknown, mass 387.0812, RT 19.97914 (ETOH 0.1, 24 H): 1.739 fold
- Fold: Unknown, mass 388.1815, RT 17.53242 (ETOH 0.1, 24 H): −1.449 fold
- Fold: Unknown, mass 393.1889, RT 15.90129 (ETOH 0.1, 24 H): −1.431 fold
- Fold: Unknown, mass 396.1687, RT 6.259963 (ETOH 0.1, 24 H): 1.718 fold
- Fold: Unknown, mass 437.2042, RT 32.18393 (ETOH 0.1, 24 H): 24.53 fold
- Fold: Unknown, mass 462.2217, RT 22.95657 (ETOH 0.1, 24 H): −1.986 fold
- Fold: Unknown, mass 464.225, RT 25.3287 (ETOH 0.1, 24 H): −1.631 fold
- Fold: Unknown, mass 482.3062, RT 72.7735 (ETOH 0.1, 24 H): −1.959 fold
- Fold: Unknown, mass 485.2069, RT 6.676207 (ETOH 0.1, 24 H): −2.014 fold
- Fold: Unknown, mass 521.9924, RT 34.35986 (ETOH 0.1, 24 H): −1.446 fold
- Fold: Unknown, mass 577.2825, RT 16.90923 (ETOH 0.1, 24 H): 1.728 fold
- Fold: Unknown, mass 677.9101, RT 33.48766 (ETOH 0.1, 24 H): −2.221 fold
- Fold: Unknown, mass 695.4286, RT 28.2045 (ETOH 0.1, 24 H): −32.9384 fold
- Fold: Unknown, mass 707.4296, RT 56.18269 (ETOH 0.1, 24 H): 1.49 fold
- Fold: Unknown, mass 711.8344, RT 4.826824 (ETOH 0.1, 24 H): −3.021 fold
- Fold: Unknown, mass 765.5211, RT 69.32865 (ETOH 0.1, 24 H): 1.873 fold
- Fold: Unknown, mass 909.5934, RT 8.502051 (ETOH 0.1, 24 H): 2.274 fold
- Fold: Unknown, mass 913.8074, RT 5.217833 (ETOH 0.1, 24 H): −1.861 fold
- Fold: Unknown, mass 994.0917, RT 3.646902 (ETOH 0.1, 24 H): 1.442 fold
- Fold: 3,4-Dihydroxybutyric acid, mass 120.0436, RT 3.767232 (ETOH 0.3, 4 D): 1.936 fold
- Fold: 3-(2,5-Dimethoxy phenylpropionic acid, mass 210.0922, RT 36.18938) (ETOH 0.3, 4 D): 1.85 fold
- Fold: 3-Methylindole, mass 131.0746, RT 22.22892 (ETOH 0.3, 4 D): 2.502 fold
- Fold: 5-Ethyl-5-(1-methyl-3-carboxypropyl)barbituric acid, mass 256.1066, RT 18.84552 (ETOH 0.3, 4 D): −2.141 fold
- Fold: 5-Methoxytryptophan, mass 234.1253, RT 53.26863 (ETOH 0.3, 4 D): −1.624 fold
- Fold: (+)-Eudesmin, mass 386.1724, RT 51.65871 (ETOH 0.3, 4 D): 4.851 fold
- Fold: Amino-4methylthiobutyric acid, mass 149.0511, RT 7.479235 (ETOH 0.3, 4 D): −1.305 fold
- Fold: Benzenemethanol, 2-(2-aminopropoxy)-3-methyl- / a-[1-(ethylamino)ethyl]-p-hydroxy-Benzyl alcohol, mass 195.124, RT 31.19917 (ETOH 0.3, 4 D): −1.86 fold
- Fold: Homogentisic acid / Vanillic acid, mass 168.0434, RT 19.18355 (ETOH 0.3, 4 D): 1.282 fold
- Fold: L-Histidine / 4-propionic acid, mass 155.0681, RT 5.559732 (ETOH 0.3, 4 D): 1.638 fold
- Fold: Malonylcarnitine, mass 229.0949, RT 24.52067 (ETOH 0.3, 4 D): −1.74 fold
- Fold: N-Methyl-2-pyrrolidinone, mass 99.0689, RT 15.48433 (ETOH 0.3, 4 D): 1.338 fold
- Fold: Pantothenol / dimethylbutanamide;, mass 205.1304, RT 6.747279 (ETOH 0.3, 4 D): −1.339 fold
- Fold: Phenanthrene-9,10-oxide / 9-Hydroxyphenanthrene; 9-Phenanthrol, mass 194.073, RT 5.935143 (ETOH 0.3, 4 D): −1.4 fold
- Fold: Thiosulfate, mass 111.9839, RT 4.032816 (ETOH 0.3, 4 D): −8.676 fold
- Fold: Unknown, mass 120.2112, RT 13.40565 (ETOH 0.3, 4 D): 3.9 fold
- Fold: Unknown, mass 131.076, RT 14.35336 (ETOH 0.3, 4 D): 4.05 fold
- Fold: Unknown, mass 162.0662, RT 44.88033 (ETOH 0.3, 4 D): 1.799 fold
- Fold: Unknown, mass 201.1709, RT 19.48063 (ETOH 0.3, 4 D): −2.979 fold
- Fold: Unknown, mass 218.0762, RT 6.62669 (ETOH 0.3, 4 D): −1.771 fold
- Fold: Unknown, mass 229.1457, RT 55.50731 (ETOH 0.3, 4 D): −1.533 fold
- Fold: Unknown, mass 243.11, RT 27.39631 (ETOH 0.3, 4 D): −1.495 fold
- Fold: Unknown, mass 247.1049, RT 6.626769 (ETOH 0.3, 4 D): −4.476 fold
- Fold: Unknown, mass 247.1408, RT 9.0276 (ETOH 0.3, 4 D): −2.751 fold
- Fold: Unknown, mass 267.2543, RT 40.75868 (ETOH 0.3, 4 D): −1.6481 fold
